Assay results as given in patent US11639364B2, “Potent sialyltransferase inhibitors” (STICHTING RADBOUD UNIVERSITEIT, priority 2018, dated 2023).
Where two headings read alike, the source gives them in different places.

Legend:
B16-F10 cells [1] = experiment: Inhibition of cell surface sialylation by urea, thiocarbamate and sulphonamide analogues (Example 5); assay type: cell-based, Mouse; settings: for IC50: three days, 0.1-204.8 μM
Experimental: (§1) Mouse B16-F10 melanoma cells (ATCC CRL-6475) were cultured in Minimum Essential Medium (MEM) (Gibco, Invitrogen, Carlsbad, Calif.) containing 5% fetal bovine serum (FBS) (Greiner Bio-one, Frickenhausen, Germany), 1% MEM non-essential amino acids (Gibco), 0.15% sodium bicarbonate (Gibco), 1 mM sodium pyruvate (Gibco), 1.5% MEM vitamins (Gibco), 1% antibiotic-antimycotic solution (50 U/ml penicillin, 50 μg/ml streptomycin and 125 ng/ml amphotericin B) (Gibco). The murine 9464D neuroblastoma cell line was cultured in Dulbecco's Modified Eagle's Medium (DMEM, Glutamax, Gibco) with 10% FBS, 1% non-essential amino acids, 50 μM 2-mercaptoethanol (Sigma-Aldrich) and 1% antibiotic-antimycotic solution (Kroesen et al., 2014, DOI: 10.1002/ijc.28463, Stauffer et al., 2012, DOI: 10.3109/07357907.2012.664670). The murine EL4 T lymphocyte cell line (ATCC TIB-39) was cultured in Iscove's Modified Dulbecco's Medium (IMDM, Gibco) supplemented with 5% FBS and 1% antibiotic-antimycotic solution. Human HEK293 (ATCC CRL-1573) kidney cells and human HeLa (ATCC CCL-2) cervical cancer cells were cultured in DMEM containing 10% FBS, 2 mM glutamine (Lonza, Walkersville, Md.) and 1% antibiotic-antimycotic solution. Human monocytic THP-1 cells (TIB-202, ATCC) were cultured in RRMI-1640 medium (Gibco) supplemented with 10% FBS, 2 mM glutamine and 1% antibiotic-antimycotic solution. All cell lines were cultured in a humidified 5% CO2 incubator at 37° C.
(§2) For the lectin staining, all cells were harvested and washed with 1× carbo-free blocking solution (Vector Laboratories, Inc., Burlingame, Calif., USA) and stained for 45 minutes at 4° C. in 1× carbo-free blocking solution containing 1 mM CaCl2), 1 mM MgCl2 and biotinylated MALII (5 μg/ml), SNA-1 (1 μg/ml) or PNA (5 μg/ml) all obtained from Vector Laboratories Inc. MALII recognizes α2,3-linked sialic acids, SNA-1 recognizes α2,6-linked sialic acids and PNA binds to terminal 3-galactose. In addition, B16-F10 cells were stained with 2 μg/ml biotinylated AAL (α-linked Fucose), LCA (α-linked Mannose), PHA-L (complex glycans), GSL-I (α-linked Galactose and N-Acetylgalactosamine), WGA (chitobiose), SJA (β-linked Galactose and N-Acetylgalactosamine) and PSA (Glucose and Mannose) purchased from Vector Laboratories Inc. Next, the cells were washed thrice in PBA (1×PBS, 1% BSA, and 0.02% sodium azide) and stained for 10 minutes at 4° C. with 2 μg/ml streptavidin-phycoerythrin (PE) (BD Pharmingen, Franklin Lakes, N.J., USA). The cells were washed thrice again with PBA and fluorescence was assessed using a CyAn ADP flow cytometer (BD Biosciences, San Jose, Calif.) followed by analysis with FlowJo software (Tree Star Inc., Ashland, Oreg.). Untreated cells stained with streptavidin-PE only served as background fluorescence control. The percentages lectin binding was calculated by normalizing the mean fluorescence intensity values from the treated cells with the DMSO controls.
IC50 values and statistics were calculated using Prism 5.03 (GraphPad Software, Inc., La Jolla, Calif.). Statistical significance between the different groups was calculated using one-way ANOVA followed by Bonferroni post-hoc testing and P-values<0.05 were considered significant (p<0.05 *, p<0.01 **, p<0.001 ***).
Analogous to example 3, the inhibitory potency of thiocarbamate 28, urea 29, and sulphonamides 30 and 31 on the sialic acid biosynthesis was assayed. To this end, B16-F10 cells were fed sialic acid precursors for three day at various concentrations (0.1-204.8 μM). The decrease in cell surface sialylation was measured using biotinylated lectins that are specific for binding α2,3-linked (MALII) or α2,6-linked (SNA-1) sialic acid residues, subsequently visualized using streptavidin-phycoerythrin. Conversely, binding of the underlying galactose residue uncovered by desialylation was measured using a galactose specific lectin (Peanut, Agglutinin Lectin, PNA). No inhibition was observed without a P-3Fax-Neu derivative present (DMSO vehicle control). […]

HEK293 cells = experiment: Inhibition of cell surface sialylation, lectin staining and flow cytometry, HEK293 cells; assay type: cell-based, Human; settings: Homo sapiens, 72 h, three days
Experimental: as §1
(§3) To assess the effect of the synthesized compounds on cell surface sialylation, different murine and human cell lines were cultured for three days in the presence of 0-204.8 μM amide and carbamate fluorine sialic acids. Cells treated with an equal final percentage of DMSO were used as control and all cells were subjected to lectin staining and flow cytometry as described below. To investigate the longevity of the effect of the fluorine sialic acids on cell surface sialylation, B16-F10 cells treated with 25.6 μM or 51.2 μM were thoroughly washed with medium to remove fluorine sialic acids from the culture and reseeded. During a period of six days, cells were harvested every day and sialylation was assessed by flow cytometry.
as §2
(§4) IC50 values and statistics were calculated using Prism 5.03 (GraphPad Software, Inc., La Jolla, Calif.). Statistical significance between the different groups was calculated using one-way ANOVA followed by Bonferroni post-hoc testing and P-values<0.05 were considered significant (p<0.05 *, p<0.01 **, p<0.001 ***). […]

9464D cells = experiment: Inhibition of cell surface sialylation, lectin staining and flow cytometry, 9464D cells; assay type: cell-based, murine; settings: Mus musculus, 72 h, three days
Experimental: as §1, §3, §2, §4

B16-F10 cells [2] = experiment: Inhibition of cell surface sialylation, lectin staining and flow cytometry, B16-F10 cells; assay type: cell-based, Mouse; settings: Mus musculus, 72 h, three days
Experimental: as §1, §3, §2, §4

HeLa cells = experiment: Inhibition of cell surface sialylation, lectin staining and flow cytometry, HeLa cells; assay type: cell-based, human; settings: Homo sapiens, 72 h, three days
Experimental: as §1, §3, §2, §4

THP-1 cells = experiment: Inhibition of cell surface sialylation, lectin staining and flow cytometry, THP-1 cells; assay type: cell-based, Human; settings: Homo sapiens, 72 h, three days
Experimental: as §1, §3, §2, §4

EL4 cells = experiment: Inhibition of cell surface sialylation, lectin staining and flow cytometry, EL4 cells; assay type: cell-based, murine; settings: Mus musculus, 72 h, three days
Experimental: as §1, §3, §2, §4

[3] = Example 5, read-out: α2,3-Sia IC50 (MAL)
[4] = MALII lectin binding, read-out: α2,3-Sia IC50
[5] = SNA-I lectin binding, read-out: α2,6-Sia IC50
[6] = Example 5, read-out: α2,6-Sia IC50 (SNA)

Row | Molecule | inhibition of sialylation compared with the acetate (B16-F10 cells [1]; FIG. 8) | IC50 (B16-F10 cells [1]; [3]) [µM] | IC50 (HEK293 cells; [4]) [µM] | IC50 (HEK293 cells; [5]) [µM] | IC50 (9464D cells; [4]) [µM] | IC50 (9464D cells; [5]) [µM] | IC50 (B16-F10 cells [2]; [4]) [µM] | IC50 (B16-F10 cells [2]; [5]) [µM] | IC50 (HeLa cells; [4]) [µM] | IC50 (HeLa cells; [5]) [µM] | IC50 (THP-1 cells; [4]) [µM] | IC50 (THP-1 cells; [5]) [µM] | IC50 (EL4 cells; [4]) [µM] | IC50 (EL4 cells; [5]) [µM] | IC50 (B16-F10 cells [1]; [6]) [µM]
1 | Methyl 5-(methylsulfonamido)-2,4,7,8,9-penta-O-acetyl-3,5-dideoxy-3-fluoro-D-glycero-β-galacto-non-2-ulopyranosonate [Sulphonamide 30] | outperforming the acetate at various concentrations | 9.9 |  |  |  |  |  |  |  |  |  |  |  |  | 
2 | COC(=O)C1(OC(C)=O)OC([C@H](OC(C)=O)[C@@H](COC(C)=O)OC(C)=O)[C@H](NC(=O)OCC(C)C)C(OC(C)=O)C1F (stereo partly drawn) [SiaFiBu, Methyl 5-(isobutylcarbamado)-2,4,7,8,9-penta-O-acetyl-3,5-dideoxy-3-fluoro-D-glycero-β-galacto-non-2-ulopyranosonate] |  |  | 11.4 ± 4.73 | 9.61 ± 4.83 | 24.4 ± 2.95 | 36.1 ± 6.4 | 3.33 ± 0.12 | 15.1 ± 3.7 | 5.15 ± 2.4 | 4.32 ± 1.82 | 0.5 ± 1.34 | 0.62 ± 1.77 | 51.8 ± 18.7 | 51.1 ± 8.97 | 
3 | COC(=O)C1(OC(C)=O)OC([C@H](OC(C)=O)[C@@H](COC(C)=O)OC(C)=O)[C@H](NC(=O)CN=[N+]=[N-])C(OC(C)=O)C1F (stereo partly drawn) [SiaFAz, Methyl 5-(azidoacetamido)-2,4,7,8,9-penta-O-acetyl-3,5-dideoxy-3-fluoro-D-glycero-β-galacto-non-2-ulopyranosonate, reference compound] |  |  | 45.6 ± 5.14 | 47.2 ± 2.89 | > 102 | > 102 | 19.9 ± 2.08 | 32.8 ± 3.55 | 80.6 ± 3.26 | 42.2 ± 8.42 | 10.9 ± 1.98 | 13.2 ± 3.02 | > 102 | > 102 | 
4 | C#CCCC(=O)N[C@@H]1C(OC(C)=O)C(F)C(OC(C)=O)(C(=O)OC)OC1[C@H](OC(C)=O)[C@@H](COC(C)=O)OC(C)=O (stereo partly drawn) [SiaFPen, Methyl 5-(4-pentynacetamido)-2,4,7,8,9-penta-O-acetyl-3,5-dideoxy-3-fluoro-D-glycero-β-galacto-non-2-ulopyranosonate, reference compound] |  |  | 26.2 ± 2.37 | 44.7 ± 4.33 | > 102 | > 102 | 40.6 ± 5.67 | 52.5 ± 4.31 | 62.3 ± 3.91 | 51.2 ± 6.06 | 10.4 ± 2.14 | 12.6 ± 3.51 | > 102 | > 102 | 
5 | Methyl 5-(S-ethylthiocarbamado)-2,4,7,8,9-penta-O-acetyl-3,5-dideoxy-3-fluoro-D-glycero-β-galacto-non-2-ulopyranosonate [Thiocarbamate 28] |  | 1.68 |  |  |  |  |  |  |  |  |  |  |  |  | 4.83
6 | Methyl 5-N-ethylamidnocarbonyl)-2,4,7,8,9-penta-O-acetyl-3,5-dideoxy-3-fluoro-D-glycero-β-galacto-non-2-ulopyranosonate [Urea 29] |  | 4.2 |  |  |  |  |  |  |  |  |  |  |  |  | 4.89
7 | COC(=O)C1(OC(C)=O)OC([C@H](OC(C)=O)[C@@H](COC(C)=O)OC(C)=O)[C@H](NC(=O)C(F)(F)F)C(OC(C)=O)C1F (stereo partly drawn) [SiaFTFA, Methyl 5-(trifluoroacetamido)-2,4,7,8,9-penta-O-acetyl-3,5-dideoxy-3-fluoro-D-glycero-β-galacto-non-2-ulopyranosonate, reference compound] |  |  | 42.8 ± 2.38 | 41.4 ± 10.4 | 46.5 ± 4.41 | > 102 | 14.3 ± 0.77 | 33.3 ± 2.63 | 25.5 ± 2.61 | 33.4 ± 4.38 | 3.3 ± 1.26 | 7.19 ± 3.6 | > 102 | > 102 | 
8 | COC(=O)C1(OC(C)=O)OC([C@H](OC(C)=O)[C@@H](COC(C)=O)OC(C)=O)[C@H](NC(=O)COC(C)=O)C(OC(C)=O)C1F (stereo partly drawn) [SiaFGc, Methyl 5-(acetoxyamido)-2,4,7,8,9-penta-O-acetyl-3,5-dideoxy-3-fluoro-D-glycero-β-galacto-non-2-ulopyranosonate] |  |  | 53.6 ± 5.25 | 54.1 ± 15.3 | > 102 | > 102 | 4.98 ± 0.33 | 11.8 ± 2.27 | 16.6 ± 3.91 | 12.5 ± 2.52 | 4.24 ± 2 | 5.94 ± 2.18 | > 102 | > 102 | 
9 | COC(=O)C1(OC(C)=O)OC([C@H](OC(C)=O)[C@@H](COC(C)=O)OC(C)=O)[C@H](NC(=O)OC(C)(C)C)C(OC(C)=O)C1F (stereo partly drawn) [SiaFBoc, Methyl 5-(tert-butoxycarbamado)-2,4,7,8,9-penta-O-acetyl-3,5-dideoxy-3-fluoro-D-glycero-β-galacto-non-2-ulopyranosonate] |  |  | 10.4 ± 4.76 | 28 ± 2.57 | 36.5 ± 3.81 | > 102 | 3.48 ± 0.56 | 8.21 ± 0.67 | 12.8 ± 1.61 | 20.6 ± 1.95 | 1.28 ± 1.36 | 1.72 ± 2.3 | 54.6 ± 3.22 | 50.3 ± 3.99 | 
